Converted amounts (≈) assume the structure as drawn.
Legend:
CCRF-CEM [1] = assay: Tested for the inhibitory concentration against cell growth of human leukemic cell line CCRF-CEM; assay type: functional
CCRF-CEM [2] = assay: Tested for the concentration required to reduce the viability of leukemia cells by 50% against cell growth of T cell leukemia cell line CCRF-CEM using MTT assay; assay type: functional; conditions: Homo sapiens, read-out: LC50 (the source's name)
CCRF-CEM [3] = assay: Tested for the inhibitory concentration against cell growth of Tcell leukemic cell line CCRF-CEM using MTT assay; assay type: functional; conditions: Homo sapiens
E6SM [4] = assay: Tested for antiviral activity against VSV-virus in human embryonic skin muscle fibroblasts; assay type: functional; conditions: Muscle tissue
E6SM [5] = assay: Tested for antiviral activity against herpes simplex virus type 1(KOS) in E6SM cell line(human embryonic skin-muscle fibroblasts); assay type: functional
E6SM [6] = assay: Tested for antiviral activity against vaccinia virus in human embryonic skin muscle fibroblast; assay type: functional; conditions: Muscle tissue
HeLa [7] = assay: The compound was tested for antiviral activity against VSV-virus in human epithelial cells; assay type: functional
E6SM [8] = assay: Tested for cytotoxic activity in human embryonic skin muscle fibroblast (E6SM); assay type: functional; conditions: Muscle tissue
E6SM [9] = assay: Antiviral activity against thymidine kinase-deficient (TK-HSV-1)virus in E6SM cell line(human embryonic skin-muscle fibroblasts); assay type: functional
E6SM [10] = assay: Antiviral activity against thymidine kinase-deficient (TK-HSV-2G) virus in E6SM cell line(human embryonic skin-muscle fibroblasts); assay type: functional
Escherichia coli = assay: Tested for the antimicrobial activity against Escherichia coli ATCC 25922; assay type: functional
HEL [11] = assay: Tested for cytotoxic activity in human embryonic lung fibroblast (HEL); assay type: functional
HEL [12] = assay: Tested for antiviral activity against human cytomegalovirus (AD-169) in human embryonic lung fibroblasts; assay type: functional
HEL [13] = assay: Tested for antiviral activity against thymidine kinase deficient Varicella zoster virus in human embryonic lung fibroblasts; assay type: functional
HEL [14] = assay: (§1) Tested for antiviral activity against thymidine kinase wild type Varicella zoster virus in human embryonic lung fibroblast; assay type: functional
HeLa [15] = assay: Tested for antiviral activity against coxsackie-B4 virus in human epithelial cell line; assay type: functional
HL-60 [16] = assay: Tested for the inhibitory concentration against cell growth of human leukemic cell line HL60; assay type: functional
HL-60 [17] = assay: Tested for the concentration required to reduce the viability of leukemia cells by 50% against cell growth of HL60 acute myeloid leukemia using MTT assay; assay type: functional; conditions: Homo sapiens, read-out: LC50 (the source's name)
HL-60 [18] = assay: Tested for the inhibitory concentration against cell growth of HL60 acute myeloid leukemia using MTT assay; assay type: functional; conditions: Homo sapiens
HeLa [19] = assay: Tested for cytotoxic activity in human epithelial cell line (HeLa); assay type: functional
HuT78 [20] = assay: Tested for the inhibitory concentration against cell growth of human leukemic cell line HuT78; assay type: functional
HuT78 [21] = assay: Tested for the concentration required to reduce the viability of leukemia cells by 50% against cell growth of HuT78 T lymphoma using MTT assay; assay type: functional; conditions: Homo sapiens, read-out: LC50 (the source's name)
HuT78 [22] = assay: Tested for the inhibitory concentration against cell growth of HuT78 T lymphoma using MTT assay; assay type: functional; conditions: Homo sapiens
K562 [23] = assay: Tested for the concentration required to reduce the viability of leukemia cells by 50% against cell growth of K562 chronic myeloid leukemia using MTT assay; assay type: functional; conditions: Homo sapiens, read-out: LC50 (the source's name)
K562 [24] = assay: Tested for the inhibitory concentration against cell growth of K562 chronic myeloid leukemia using MTT assay; assay type: functional; conditions: Homo sapiens
K562 [25] = assay: Tested for the inhibitory concentration against cell growth of human leukemic cell line K562; assay type: functional
Klebsiella pneumoniae = assay: Tested for the antimicrobial activity against Klebsiella pneumoniae ATCC 13883; assay type: functional
MOLT-4 [26] = assay: Tested for the inhibitory concentration against cell growth of human leukemic cell line MOLT-4; assay type: functional
MT4 [27] = assay: (§2) Tested for effective concentration required to protect MT-4 cells against the cytopathicity of HIV-1(IIIB); assay type: functional; conditions: Homo sapiens, read-out: LC50 (the source's name)
MT4 [28] = assay: Tested for effective concentration required to protect MT-4 cells against the cytopathicity of HIV-2(ROD); assay type: functional, cell-based; conditions: Homo sapiens
MOLT-4 [29] = assay: Tested for the concentration required to reduce the viability of leukemia cells by 50% against cell growth of T cell leukemia cell line MOLT-4 using MTT assay; assay type: functional; conditions: Homo sapiens, read-out: LC50 (the source's name)
MOLT-4 [30] = assay: Tested for the inhibitory concentration against cell growth of Tcell leukemic cell line MOLT-4 using MTT assay; assay type: functional; conditions: Homo sapiens
MT4 [31] = assay: Tested for cytotoxic concentration required to reduce the viability of MT-4 cells by 50%; assay type: functional; conditions: Homo sapiens
RPMI-8226 [32] = assay: Tested for the inhibitory concentration against cell growth of human leukemic cell line RPMI8226; assay type: functional
RPMI-8226 [33] = assay: Tested for the concentration required to reduce the viability of leukemia cells by 50% against cell growth of RPMI8226 multiple myeloma using MTT assay; assay type: functional; conditions: Homo sapiens
RPMI-8226 [34] = assay: Tested for the inhibitory concentration against cell growth of […] multiple myeloma using MTT assay; assay type: functional; conditions: Homo sapiens
Staphylococcus aureus = assay: Tested for the antimicrobial activity against Staphylococcus aureus ATCC 6538; assay type: functional
[35] = system: Staphylococcus epidermidis; assay: Tested for the antimicrobial activity against Staphylococcus epidermidis ATCC 12228; assay type: functional
[36] = (§3) Tested for the antimicrobial activity against Staphylococcus hominis ATCC 27844; assay type: functional
Vero [37] = assay: Tested for cytotoxic activity in African green monkey kidney cells (Vero); assay type: functional; conditions: Chlorocebus sabaeus
Vero [38] = assay: Tested for antiviral activity against Punta toro virus in African green monkey kidney cell (Vero); assay type: functional; conditions: Chlorocebus sabaeus
Vero [39] = assay: Tested for antiviral activity against Reo-1 virus in African green monkey kidney cell (Vero); assay type: functional; conditions: Chlorocebus sabaeus
Vero [40] = assay: Tested for antiviral activity against Sindbis virus in African green monkey kidney cell (Vero); assay type: functional; conditions: Chlorocebus sabaeus
Vero [41] = assay: Tested for antiviral activity against coxsackie B-4 virus in African green monkey kidney cell (Vero); assay type: functional; conditions: Chlorocebus sabaeus
Vero [42] = assay: Tested for antiviral activity against parainfluenza virus in african green monkey kidney cell (Vero); assay type: functional; conditions: Chlorocebus sabaeus
E6SM [43] = assay: Tested for antiviral activity against thymidine kinase-deficient (TK-HSV-2G) virus in E6SM cell line(human embryonic skin-muscle fibroblasts); assay type: functional
E6SM [44] = assay: The compound was tested for antiviral activity against thymidine kinase-deficient (TK-HSV-1)virus in E6SM cell line(human embryonic skin-muscle fibroblasts); assay type: functional
E6SM [45] = assay: as §1; assay type: functional
Staphylococcus hominis = assay: as §3; assay type: functional
MT4 [46] = assay: as §2; assay type: functional, cell-based; conditions: Homo sapiens
[47] = read-out: LC50 (the source's name)

For S=C(N/N=C(/c1ccccn1)C12CC3CC(CC(C3)C1)C2)NNC(=S)c1ccc(Cl)cc1, the GI50 (CCRF-CEM [1]) was 76 µM, the CC50 (CCRF-CEM [2]) was 100 µM and the TGI (CCRF-CEM [3]) was 100 µM. For the same compound, the MIC (E6SM [4]) was over 16 mg/L, the MIC (E6SM [5]) was over 16 mg/L and the MIC (E6SM [6]) was over 16 mg/L. It also gave an MIC (HeLa [7]) of over 3.2 mg/L, an MCC (E6SM [8]) of 80 µg/mL and an MIC (E6SM [9]) of over 16 mg/L. The MIC (E6SM [10]) was over 16 mg/L, the MIC (Escherichia coli) was over 2000 mg/L and the MCC (HEL [11]) was 5 µg/mL. It also gave an MIC (HEL [12]) of over 5 mg/L, an MIC (HEL [13]) of over 2 mg/L and an MIC (HEL [14]) of over 2 mg/L. The MIC (HeLa [15]) was over 3.2 mg/L, the GI50 (HL-60 [16]) was 4.1 µM and the CC50 (HL-60 [17]) was 85.5 µM. The TGI (HL-60 [18]) was 9.5 µM, the MCC (HeLa [19]) was over 16 µg/mL and the GI50 (HuT78 [20]) was 8 µM. The CC50 (HuT78 [21]) was 100 µM, the TGI (HuT78 [22]) was 100 µM and the CC50 (K562 [23]) was 100 µM. It also gave a TGI (K562 [24]) of 100 µM, a GI50 (K562 [25]) of 100 µM and an MIC (Klebsiella pneumoniae) of over 2000 mg/L. It also gave a GI50 (MOLT-4 [26]) of 100 µM, an EC50 (MT4 [27]) of over 3 µM and an EC50 (MT4 [28]) of over 3 µM. It also gave a CC50 (MOLT-4 [29]) of 100 µM, a TGI (MOLT-4 [30]) of 100 µM and a CC50 (MT4 [31]) of 2.8 µM. The GI50 (RPMI-8226 [32]) was 6.7 µM, the CC50 (RPMI-8226 [33]; [47]) was 100 µM and the TGI (RPMI-8226 [34]) was 68.3 µM. For the same compound, the MIC (Staphylococcus aureus) was 1000 mg/L (≈ 2070 µM), the MIC [35] was 1000 mg/L (≈ 2070 µM) and the MIC [36] was 1000 mg/L (≈ 2070 µM). For the same compound, the MCC (Vero [37]) was 80 µg/mL, the MIC (Vero [38]) was over 16 mg/L and the MIC (Vero [39]) was over 16 mg/L. For the same compound, the MIC (Vero [40]) was over 16 mg/L, the MIC (Vero [41]) was 9.6 mg/L (≈ 19.8 µM) and the MIC (Vero [42]) was over 16 mg/L.
In the case of N/C(S)=N\N=C(\c1ccccn1)C12CC3CC(CC(C3)C1)C2, the GI50 (CCRF-CEM [1]) is reported as 100 µM, the CC50 (CCRF-CEM [2]) is reported as 100 µM and the MIC (E6SM [4]) is reported as over 400 mg/L. For the same compound, the CC50 (E6SM [5]) was over 400 mg/L, the MIC (E6SM [43]) was over 400 mg/L and the MIC (E6SM [6]) was over 400 mg/L. For the same compound, the MIC (HeLa [7]) was over 400 mg/L, the CC50 (E6SM [44]) was over 400 mg/L and the MCC (E6SM [8]) was over 400 µg/mL. For the same compound, the MIC (Escherichia coli) was over 3180 mg/L, the MCC (HEL [11]) was over 20 µg/mL and the MIC (HEL [12]) was over 5 mg/L. The MIC (HEL [13]) was over 20 mg/L, the MIC (E6SM [45]) was over 20 mg/L and the MIC (HeLa [15]) was 240 mg/L (≈ 763 µM). For the same compound, the GI50 (HL-60 [16]) was 51.1 µM, the CC50 (HL-60 [17]) was 100 µM and the TGI (HL-60 [18]) was 100 µM. For the same compound, the MCC (HeLa [19]) was over 400 µg/mL, the GI50 (HuT78 [20]) was 2.4 µM and the CC50 (HuT78 [21]) was 100 µM. It also gave a CC50 (K562 [23]) of 100 µM, an MIC (Klebsiella pneumoniae) of over 3180 mg/L and a GI50 (MOLT-4 [26]) of 6.4 µM. The CC50 (MOLT-4 [29]) was 100 µM, the CC50 (MT4 [31]; [47]) was over 400 µM and the GI50 (RPMI-8226 [32]) was 97.9 µM. The CC50 (RPMI-8226 [33]) was 100 µM, the TGI (RPMI-8226 [34]) was 100 µM and the MIC (Staphylococcus aureus) was over 3180 mg/L. It also gave an MIC [35] of over 3180 mg/L, an MIC (Staphylococcus hominis) of over 3180 mg/L and an MCC (Vero [37]) of 16 µg/mL. For the same compound, the MIC (Vero [38]) was over 3.2 mg/L, the MIC (Vero [39]) was over 3.2 mg/L and the MIC (Vero [40]) was over 3.2 mg/L. For the same compound, the MIC (Vero [41]) was over 3.2 mg/L, the MIC (Vero [42]) was over 3.2 mg/L and the EC50 (MT4 [46]) was over 400 µM.
